Each block holds one compound with its values, some of them ahead of it. Peptide text beside a SMILES is read from it.
Test system: Caco-2 cell monolayer
Test: Transepithelial transport through Caco-2 cell monolayers (Transwell)
Assay type: in vitro ADME
Details: Caco-2 monolayer on Transwell, 21 days, TEER > 1100 Ω × cm^2, 75 µg peptide in 0.75 mL HBSS apical, 37 °C, RP-HPLC UV 220 nm, mean ± SD, n. d. = not detected with RP-HPLC; for RP-HPLC Estimation AP (%): 120 min after 30 min equilibration, apical compartment, % of total peptide added; for RP-HPLC Estimation BL (%): A-B, 120 min, basolateral compartment, % of initial peptide added apically
Description: Caco-2 cells were obtained from DISCOG (University of Padova, Padova, Italy). The cells cultured in DMEM (high glucose) supplemented with 10% FBS, were used between 35 and 60 passages. In order to perform transepithelial transport, 8 × 10^4 cells were seeded on Transwell^© cell culture inserts (0.4 µm pore sizes, 12 mm diameter, 1.12 cm^2 grown surface; Corning Life Sciences, Tewksbury, MA, USA). Cells were grown, differentiated for 21 days and the monolayer integrity was estimated by transepithelial electrical resistance (TEER) (Millicell® ERS-2 volt-ohmmeter, EDM Millipore, Darmstadt, Germany) showing values higher than 1100 Ω × cm^2.
The intestinal barrier crossing capacity of the fractions or synthetic peptides through Caco-2 cells monolayer was evaluated using Transwell® insert model according to Tonolo et al.. Briefly, after 21 days of culturing, Caco-2 cells differentiated forming a monolayer that delimited an upper part (apical compartment) and lower part (basolateral compartment). The monolayer was rinsed three times with Hank’s balanced salt solution (HBSS) and 10 mM D-glucose and equilibrated for 30 min at 37 °C. After, cells were incubated in the presence of 0.75 mL HBSS containing 150 µg fraction or 75 µg peptide in the apical chamber at 37 °C for 120 min. Samples collected from both compartments (apical and basolateral) at different times were centrifuged at 11,600× g, filtered with 0.45 µm filter, frozen and lyophilized. Subsequently, the obtained samples were dissolved in 100 µL of 0.1% TFA aqueous solution and evaluated by RP-HPLC and Matrix assisted laser desorption/ionization- time of flight/time of flight mass spectrometry (MALDI-TOF/TOF MS).
The apical and basolateral compartments were evaluated in RP-HPLC using a column Onyx Monolithic C18 100 mm × 4.6 mm, LC column (Phenomenex, Torrance, CA, USA) with a Waters 2695 Separation Module (Milfold, MA, USA) with a Waters 996 Photodiode Array Detector. Separations were performed with a linear gradient from 0–60% ACN in the presence of 0.1% TFA over 20 min at a constant flow rate of 2 mL/min monitoring the peaks by UV detection (λ = 220 nm).
Subsequently, the obtained fractions were analysed with a MALDI-TOF/TOF 4800 mass spectrometer (AB Sciex, Framingham, MA, USA). After an initial full MS scan, enlargements on the MS signals of interest were acquired. For the basolateral fractions, the samples, after lyophilisation, were dissolved in 50 µL of 25% ACN and 0.1% TFA. The analysis was then performed on 2 µL of these solutions mixed with 2 µL of peptide MALDI matrix α-cyano-4-hydroxycynnamic acid (10 mg/mL aqueous 70% acetonitrile/0.1% TFA). The following analytical conditions were set for MALDI-TOF spectra acquisition: positive ion reflector mode, initial mass range 500–3500 Da (the mass range was then adapted for each enlargement), variable laser intensity (3000–3800), shots/sub-spectrum 50, total shots/spectrum 1500 and accelerating voltage of 20 kV. Final data analysis and fragments identification were done on Data Explorer software (AB Sciex, Framingham, MA, USA), utilizing external mass calibration performed with mass peptide standards (Sigma-Aldrich, St Louis, MO, USA).
In order to evaluate the intestinal crossing capacity of the four peptides, Transwell® insert model peptide absorption, was performed. […] After 10 min and 120 min, apical and basolateral compartments were collected and analyzed by RP-HPLC and mass spectrometry.

Compound: CC(C)[C@H](NC(=O)[C@H](CCC(N)=O)NC(=O)[C@H](CC(=O)O)NC(=O)[C@H](Cc1c[nH]c2ccccc12)NC(=O)[C@@H]1CCCN1C(=O)[C@@H](N)CC(N)=O)C(=O)N[C@@H](CCCCN)C(=O)N[C@@H](CCCNC(=N)N)C(=O)O [N-8-R] (H-NPWDQVKR-OH)
RP-HPLC Estimation AP (%): 0.55 ± 0.15%

Compound: CSCC[C@H](NC(=O)[C@@H](NC(=O)[C@@H](NC(=O)[C@@H]1CCCN1C(=O)[C@H](CCC(N)=O)NC(=O)[C@H](C)NC(=O)[C@H](CCC(N)=O)NC(=O)[C@H](CS)NC(=O)[C@H](CO)NC(=O)[C@H](CCCCN)NC(=O)[C@H](C)N)[C@@H](C)O)[C@@H](C)O)C(=O)O [A-11-M] (H-AKSCQAQPTTM-OH)
RP-HPLC Estimation AP (%): 44.96 ± 9.09%
RP-HPLC Estimation BL (%): 0.16 ± 0.02%

Compound: CC[C@H](C)[C@H](NC(=O)[C@H](CCCCN)NC(=O)[C@H](CC(=O)O)NC(=O)[C@H](CCC(N)=O)NC(=O)[C@H](CC(C)C)NC(=O)[C@H](CCC(=O)O)NC(=O)[C@@H](N)CC(=O)O)C(=O)N[C@@H](Cc1c[nH]cn1)C(=O)N1CCC[C@H]1C(=O)N[C@@H](Cc1ccccc1)C(=O)O [D-10-F] (H-DELQDKIHPF-OH)
RP-HPLC Estimation AP (%): 4.17 ± 0.27%

Compound: CC[C@H](C)[C@H](NC(=O)[C@@H]1CCCN1C(=O)CN)C(=O)N[C@H](C(=O)N[C@@H](CC(C)C)C(=O)N[C@@H](CC(N)=O)C(=O)N1CCC[C@H]1C(=O)N[C@@H](Cc1c[nH]c2ccccc12)C(=O)N[C@@H](CC(=O)O)C(=O)N[C@@H](CCC(N)=O)C(=O)N[C@H](C(=O)N[C@@H](CCCCN)C(=O)N[C@@H](CCCNC(=N)N)C(=O)O)C(C)C)C(C)C [G-13-R] (H-GPIVLNPWDQVKR-OH)
RP-HPLC Estimation AP (%): 3.19 ± 0.27%

Results, then the compound that gave them:

RP-HPLC Estimation AP (%): 8.97 ± 0.53%
RP-HPLC Estimation BL (%): 0.30 ± 0.07%
Compound: CC[C@H](C)[C@H](NC(=O)[C@@H]1CCCN1C(=O)[C@H](CC(N)=O)NC(=O)[C@@H]1CCCN1C(=O)[C@@H](NC(=O)[C@H](CC(=O)O)NC(=O)[C@H](CO)NC(=O)[C@H](Cc1ccccc1)NC(=O)[C@@H](N)CO)[C@@H](C)CC)C(=O)NCC(=O)N[C@@H](CO)C(=O)N[C@@H](CCC(=O)O)C(=O)N[C@@H](CC(N)=O)C(=O)N[C@@H](CO)C(=O)N[C@@H](CCC(=O)O)C(=O)O [S-15-E] (H-SFSDIPNPIGSENSE-OH)

RP-HPLC Estimation BL (%): 0.07 ± 0.05%
Compound: CC[C@H](C)[C@H](NC(=O)[C@@H]1CCCN1C(=O)CNC(=O)[C@@H](N)CCC(N)=O)C(=O)N[C@H](C(=O)N[C@@H](CC(C)C)C(=O)N[C@@H](CC(N)=O)C(=O)N1CCC[C@H]1C(=O)N[C@@H](Cc1c[nH]c2ccccc12)C(=O)N[C@@H](CC(=O)O)C(=O)N[C@@H](CCC(N)=O)C(=O)N[C@H](C(=O)N[C@@H](CCCCN)C(=O)O)C(C)C)C(C)C [Q-13-K] (H-QGPIVLNPWDQVK-OH)

RP-HPLC Estimation BL (%): 0.11 ± 0.01%
Compound: CC[C@H](C)[C@H](NC(=O)[C@@H]1CCCN1C(=O)CNC(=O)[C@@H](N)CCC(N)=O)C(=O)N[C@H](C(=O)N[C@@H](CC(C)C)C(=O)N[C@@H](CC(N)=O)C(=O)N1CCC[C@H]1C(=O)N[C@@H](Cc1c[nH]c2ccccc12)C(=O)N[C@@H](CC(=O)O)C(=O)N[C@@H](CCC(N)=O)C(=O)O)C(C)C [Q-11-Q] (H-QGPIVLNPWDQ-OH)

RP-HPLC Estimation AP (%): 2.21 ± 0.53%
Compound: CSCC[C@H](NC(=O)[C@@H](NC(=O)[C@@H](NC(=O)[C@@H]1CCCN1C(=O)[C@H](CCC(N)=O)NC(=O)[C@H](C)NC(=O)[C@H](CCC(N)=O)NC(=O)[C@H](CS)NC(=O)[C@H](CO)NC(=O)[C@H](CCCCN)NC(=O)[C@H](C)NC(=O)[C@@H]1CCCN1C(=O)[C@@H](N)C(C)C)[C@@H](C)O)[C@@H](C)O)C(=O)O [V-13-M] (H-VPAKSCQAQPTTM-OH)

RP-HPLC Estimation BL (%): 0.12 ± 0.03%
Compound: CSCC[C@H](NC(=O)[C@@H](NC(=O)[C@@H](NC(=O)[C@@H]1CCCN1C(=O)[C@H](CCC(N)=O)NC(=O)[C@H](C)NC(=O)[C@H](CCC(N)=O)NC(=O)[C@H](CS)NC(=O)[C@@H](N)CO)[C@@H](C)O)[C@@H](C)O)C(=O)O [S-9-M] (H-SCQAQPTTM-OH)
